Reference: ChEMBL document CHEMBL3045592, “Studies of O,O-dimethyl α-(2,4-dichlorophenoxyacetoxy)ethylphosphonate (HW02) as a new herbicide. 1. Synthesis and herbicidal activity of HW02 and analogues as novel inhibitors of pyruvate dehydrogenase complex” (J Agric Food Chem, 2011)

How the values were obtained:
Brassica juncea = assay: Post-emergence herbicidal activity against Brassica juncea assessed as growth inhibition at 450 ai g/ha after 20 days by green house test; format: functional
Digitaria sanguinalis [1] = assay: Post-emergence herbicidal activity against Digitaria sanguinalis (hairy crabgrass) assessed as growth inhibition at 75 ai g/ha after 20 days by green house test; format: functional
Digitaria sanguinalis [2] = assay: Pre-emergence herbicidal activity against Digitaria sanguinalis (hairy crabgrass) assessed as growth inhibition at 450 ai g/ha after 20 days by green house test; format: functional
Digitaria sanguinalis [3] = assay: Pre-emergence herbicidal activity against Digitaria sanguinalis (hairy crabgrass) assessed as growth inhibition at 150 ai g/ha after 20 days by green house test; format: functional
Digitaria sanguinalis [4] = assay: Pre-emergence herbicidal activity against Digitaria sanguinalis (hairy crabgrass) assessed as growth inhibition at 75 ai g/ha after 20 days by green house test; format: functional
Chenopodium album [5] = assay: Post-emergence herbicidal activity against Chenopodium album assessed as growth inhibition at 450 ai g/ha after 20 days by green house test; format: functional
Chenopodium album [6] = assay: Post-emergence herbicidal activity against Chenopodium album assessed as growth inhibition at 150 ai g/ha after 20 days by green house test; format: functional
Chenopodium album [7] = assay: Post-emergence herbicidal activity against Chenopodium album assessed as growth inhibition at 75 ai g/ha after 20 days by green house test; format: functional
Chenopodium album [8] = assay: Pre-emergence herbicidal activity against Chenopodium album assessed as growth inhibition at 450 ai g/ha after 20 days by green house test; format: functional
Chenopodium album [9] = assay: Pre-emergence herbicidal activity against Chenopodium album assessed as growth inhibition at 150 ai g/ha after 20 days by green house test; format: functional
Chenopodium album [10] = assay: Pre-emergence herbicidal activity against Chenopodium album assessed as growth inhibition at 75 ai g/ha after 20 days by green house test; format: functional
Amaranthus spinosus [11] = assay: Post-emergence herbicidal activity against Amaranthus spinosus assessed as growth inhibition at 450 ai g/ha after 20 days by green house test; format: functional
Amaranthus spinosus [12] = assay: Post-emergence herbicidal activity against Amaranthus spinosus assessed as growth inhibition at 150 ai g/ha after 20 days by green house test; format: functional
Amaranthus spinosus [13] = assay: Post-emergence herbicidal activity against Amaranthus spinosus assessed as growth inhibition at 75 ai g/ha after 20 days by green house test; format: functional
[14] = target: Pyruvate dehydrogenase complex (Vigna radiata var. radiata); assay: Inhibition of PDHc in Vigna radiata var. radiata VC2778A shoot mitochondria assessed as decrease in rate of NADH formation using sodium pyruvate as substrate preincubated for 25 min before substrate addition measured after 1 min by spectrophotometric assay; format: protein-complex assay
Echinochloa crus-galli = assay: Post-emergence herbicidal activity against Echinochloa crus-galli (barnyard grass) assessed as growth inhibition at 450 ai g/ha after 20 days by green house test; format: functional
Abutilon theophrasti [15] = assay: Post-emergence herbicidal activity against Abutilon theophrasti (velvetleaf) assessed as growth inhibition at 75 ai g/ha after 20 days by green house test; format: functional
Abutilon theophrasti [16] = assay: Pre-emergence herbicidal activity against Abutilon theophrasti (velvetleaf) assessed as growth inhibition at 450 ai g/ha after 20 days by green house test; format: functional
Abutilon theophrasti [17] = assay: Pre-emergence herbicidal activity against Abutilon theophrasti (velvetleaf) assessed as growth inhibition at 150 ai g/ha after 20 days by green house test; format: functional
Abutilon theophrasti [18] = assay: Pre-emergence herbicidal activity against Abutilon theophrasti (velvetleaf) assessed as growth inhibition at 75 ai g/ha after 20 days by green house test; format: functional
Amaranthus spinosus [19] = assay: Pre-emergence herbicidal activity against Amaranthus spinosus assessed as growth inhibition at 450 ai g/ha after 20 days by green house test; format: functional
Amaranthus spinosus [20] = assay: Pre-emergence herbicidal activity against Amaranthus spinosus assessed as growth inhibition at 150 ai g/ha after 20 days by green house test; format: functional
Amaranthus spinosus [21] = assay: Pre-emergence herbicidal activity against Amaranthus spinosus assessed as growth inhibition at 75 ai g/ha after 20 days by green house test; format: functional
[22] = Toxicity against Oryza sativa (rice) assessed as growth inhibition at 450 ai g/ha post-emergent application measured after 20 days by green house crop selectivity test; format: organism-based; details: in vivo, read-out: GI
Abutilon theophrasti [23] = assay: Post-emergence herbicidal activity against Abutilon theophrasti (velvetleaf) assessed as growth inhibition at 450 ai g/ha after 20 days by green house test; format: functional
Amaranthus retroflexus = assay: Post-emergence herbicidal activity against Amaranthus retroflexus assessed as growth inhibition at 450 ai g/ha after 20 days by green house test; format: functional
Cucumis sativus = assay: Herbicidal activity against Cucumis sativus Jin 4 (cucumber) assessed as inhibition of root growth after 3 days; format: functional, organism-based; details: Jin 4, 72 h
Abutilon theophrasti [24] = assay: Post-emergence herbicidal activity against Abutilon theophrasti (velvetleaf) assessed as growth inhibition at 150 ai g/ha after 20 days by green house test; format: functional
Setaria viridis [25] = assay: Post-emergence herbicidal activity against Setaria viridis (green foxtail) assessed as growth inhibition at 450 ai g/ha after 20 days by green house test; format: functional
Setaria viridis [26] = assay: Post-emergence herbicidal activity against Setaria viridis (green foxtail) assessed as growth inhibition at 150 ai g/ha after 20 days by green house test; format: functional
Setaria viridis [27] = assay: Post-emergence herbicidal activity against Setaria viridis (green foxtail) assessed as growth inhibition at 75 ai g/ha after 20 days by green house test; format: functional
Setaria viridis [28] = assay: Pre-emergence herbicidal activity against Setaria viridis (green foxtail) assessed as growth inhibition at 450 ai g/ha after 20 days by green house test; format: functional
Setaria viridis [29] = assay: Pre-emergence herbicidal activity against Setaria viridis (green foxtail) assessed as growth inhibition at 150 ai g/ha after 20 days by green house test; format: functional
Setaria viridis [30] = assay: Pre-emergence herbicidal activity against Setaria viridis (green foxtail) assessed as growth inhibition at 75 ai g/ha after 20 days by green house test; format: functional
Digitaria sanguinalis [31] = assay: Post-emergence herbicidal activity against Digitaria sanguinalis (hairy crabgrass) assessed as growth inhibition at 450 ai g/ha after 20 days by green house test; format: functional
Digitaria sanguinalis [32] = assay: Post-emergence herbicidal activity against Digitaria sanguinalis (hairy crabgrass) assessed as growth inhibition at 150 ai g/ha after 20 days by green house test; format: functional
Pisum sativum = assay: Post-emergence herbicidal activity against Pisum sativum Zhongwan-2 (pea) assessed as growth inhibition at 450 ai g/ha after 20 days by green house test; details: Lathyrus oleraceus

With CCOP(=O)(OCC)C(C)OC(=O)COc1ccc(Cl)cc1Cl (configuration not stated) the “growth inhibition (GI)” value (Brassica juncea) was 97.5%, the “growth inhibition (GI)” value (Digitaria sanguinalis [1]) was 0% and the “growth inhibition (GI)” value (Digitaria sanguinalis [2]) was 10%. For the same compound, the “growth inhibition (GI)” value (Digitaria sanguinalis [3]) was 0%, the “growth inhibition (GI)” value (Digitaria sanguinalis [4]) was 0% and the “growth inhibition (GI)” value (Chenopodium album [5]) was 97.5%. For the same compound, the “growth inhibition (GI)” value (Chenopodium album [6]) was 92.5%, the “growth inhibition (GI)” value (Chenopodium album [7]) was 62.5% and the “growth inhibition (GI)” value (Chenopodium album [8]) was 52.5%. The “growth inhibition (GI)” value (Chenopodium album [9]) was 0%, the “growth inhibition (GI)” value (Chenopodium album [10]) was 0% and the “growth inhibition (GI)” value (Amaranthus spinosus [11]) was 100%. For the same compound, the “growth inhibition (GI)” value (Amaranthus spinosus [12]) was 82.5%, the “growth inhibition (GI)” value (Amaranthus spinosus [13]) was 52.5% and the IC50 [14] was 23.1 µM. The “growth inhibition (GI)” value (Echinochloa crus-galli) was 5%, the “growth inhibition (GI)” value (Abutilon theophrasti [15]) was 97.5% and the “growth inhibition (GI)” value (Abutilon theophrasti [16]) was 47.5%. The “growth inhibition (GI)” value (Abutilon theophrasti [17]) was 0%, the “growth inhibition (GI)” value (Abutilon theophrasti [18]) was 0% and the “growth inhibition (GI)” value (Amaranthus spinosus [19]) was 50%. For the same compound, the “growth inhibition (GI)” value (Amaranthus spinosus [20]) was 0%, the “growth inhibition (GI)” value (Amaranthus spinosus [21]) was 0% and the inhibition at 480 h [22] was 37.5%. For the same compound, the “growth inhibition (GI)” value (Abutilon theophrasti [23]) was 100%, the “growth inhibition (GI)” value (Amaranthus retroflexus) was 100% and the IC50 (Cucumis sativus) was 300 nM. The “growth inhibition (GI)” value (Abutilon theophrasti [24]) was 97.5%, the “growth inhibition (GI)” value (Setaria viridis [25]) was 0% and the “growth inhibition (GI)” value (Setaria viridis [26]) was 0%. The “growth inhibition (GI)” value (Setaria viridis [27]) was 0%, the “growth inhibition (GI)” value (Setaria viridis [28]) was 5.5% and the “growth inhibition (GI)” value (Setaria viridis [29]) was 0%. For the same compound, the “growth inhibition (GI)” value (Setaria viridis [30]) was 0%, the “growth inhibition (GI)” value (Digitaria sanguinalis [31]) was 0% and the “growth inhibition (GI)” value (Digitaria sanguinalis [32]) was 0%. For the same compound, the growth inhibition (GI) (Pisum sativum) was 82.5%.
